Tests used:
Format in all cases: cell-based, human
[1] = tested on: glioblastoma PDC sample A; test: CCK-8 viable count of glioblastoma PDC sample A after drug treatment; details: for Living cell proportion (a value relative to CCK8): PDC sample A, 72 h
Protocol: (§1) Enzymolysis was separately carried out on the four collected glioblastoma samples to obtain glioblastoma PDC samples A, B, C and D.
(§2) The glioblastoma PDC samples A, B, C and D were taken, re-suspended by using a special culture medium, and then respectively inoculated into a 96-well cell culture plate, so that each culture well contained 3000 cells. After inoculation was completed, the 96-well cell culture plate was placed in an incubator containing 5% CO2 at 37° C., and incubation was performed for 24 h. […] After the drug was added, the incubation was continued to be performed for 72 h, then the viable count in each culture well was measured by using CCK-8, and the results are shown in Table 1, Table 2, FIG. 11 and FIG. 12.

[2] = tested on: glioblastoma PDC sample B; test: CCK-8 viable count of glioblastoma PDC sample B after drug treatment; details: for Living cell proportion (a value relative to CCK8): PDC sample B, 72 h
Protocol: as §1
(§3) The glioblastoma PDC samples A, B, C and D were taken, re-suspended by using a special culture medium, and then respectively inoculated into a 96-well cell culture plate, so that each culture well contained 3000 cells. After inoculation was completed, the 96-well cell culture plate was placed in an incubator containing 5% CO2 at 37° C., and incubation was performed for 24 h.

[3] = tested on: glioblastoma PDC sample C; test: CCK-8 viable count of glioblastoma PDC sample C after drug treatment; details: for Living cell proportion (a value relative to CCK8): 72 h
Protocol: as §1, §3

[4] = tested on: glioblastoma PDC sample D; test: CCK-8 viable count of glioblastoma PDC sample D after drug treatment; details: for Living cell proportion (a value relative to CCK8): 72 h
Protocol: as §1, §2

Cn1nnc2c(C(N)=O)ncn2c1=O [TMZ, temozolomide]
Living cell proportion (a value relative to CCK8) ([1]; TMZ 50 μM): 0.8481
Living cell proportion (a value relative to CCK8) ([1]; TMZ 100 μM): 0.8696
Living cell proportion (a value relative to CCK8) ([1]; TMZ 150 μM): 0.7968
Living cell proportion (a value relative to CCK8) ([1]; TMZ 200 μM): 0.7843
Living cell proportion (a value relative to CCK8) ([1]; TMZ 300 μM): 0.7824
Living cell proportion (a value relative to CCK8) ([1]; TMZ 400 μM): 0.6482
Living cell proportion (a value relative to CCK8) ([1]; TMZ 600 μM): 0.5261
Living cell proportion (a value relative to CCK8) ([1]; TMZ 800 μM): 0.4052
Living cell proportion (a value relative to CCK8) ([1]; TMZ 1000 μM): 0.2577
Living cell proportion (a value relative to CCK8) ([2]; TMZ 50 μM): 0.8549
Living cell proportion (a value relative to CCK8) ([2]; TMZ 100 μM): 0.8905
Living cell proportion (a value relative to CCK8) ([2]; TMZ 150 μM): 0.9369
Living cell proportion (a value relative to CCK8) ([2]; TMZ 200 μM): 0.8763
Living cell proportion (a value relative to CCK8) ([2]; TMZ 300 μM): 0.724
Living cell proportion (a value relative to CCK8) ([2]; TMZ 400 μM): 0.7183
Living cell proportion (a value relative to CCK8) ([2]; TMZ 600 μM): 0.5489
Living cell proportion (a value relative to CCK8) ([2]; TMZ 800 μM): 0.345
Living cell proportion (a value relative to CCK8) ([2]; TMZ 1000 μM): 0.3175
Living cell proportion (a value relative to CCK8) ([3]; TMZ 50 μM): 0.6188
Living cell proportion (a value relative to CCK8) ([3]; TMZ 100 μM): 0.5841
Living cell proportion (a value relative to CCK8) ([3]; TMZ 150 μM): 0.4536
Living cell proportion (a value relative to CCK8) ([3]; TMZ 200 μM): 0.4768
Living cell proportion (a value relative to CCK8) ([3]; TMZ 300 μM): 0.4315
Living cell proportion (a value relative to CCK8) ([3]; TMZ 400 μM): 0.3164
Living cell proportion (a value relative to CCK8) ([3]; TMZ 600 μM): 0.2817
Living cell proportion (a value relative to CCK8) ([3]; TMZ 800 μM): 0.2834
Living cell proportion (a value relative to CCK8) ([3]; TMZ 1000 μM): 0.3585
Living cell proportion (a value relative to CCK8) ([4]; TMZ 50 μM): 0.7828
Living cell proportion (a value relative to CCK8) ([4]; TMZ 100 μM): 0.647
Living cell proportion (a value relative to CCK8) ([4]; TMZ 150 μM): 0.5799
Living cell proportion (a value relative to CCK8) ([4]; TMZ 200 μM): 0.5468
Living cell proportion (a value relative to CCK8) ([4]; TMZ 300 μM): 0.4681
Living cell proportion (a value relative to CCK8) ([4]; TMZ 400 μM): 0.3984
Living cell proportion (a value relative to CCK8) ([4]; TMZ 600 μM): 0.3435
Living cell proportion (a value relative to CCK8) ([4]; TMZ 800 μM): 0.2684
Living cell proportion (a value relative to CCK8) ([4]; TMZ 1000 μM): 0.2529

C[C@@H](Oc1cc(-c2cnn(C3CCNCC3)c2)cnc1N)c1c(Cl)ccc(F)c1Cl [crizotinib]
sensitivity of the glioblastoma PDC sample to the drug ([1]; PDC sample A (MET exon 10 and exon 19 deleted), in words): sensitive
Living cell proportion (a value relative to CCK8) ([1]; crizotinib 0.5 μM): 0.824
Living cell proportion (a value relative to CCK8) ([1]; crizotinib 1 μM): 0.5684
Living cell proportion (a value relative to CCK8) ([1]; crizotinib 1.5 μM): 0.4624
Living cell proportion (a value relative to CCK8) ([1]; crizotinib 2 μM): 0.3834
Living cell proportion (a value relative to CCK8) ([1]; crizotinib 3 μM): 0.3316
Living cell proportion (a value relative to CCK8) ([1]; crizotinib 6 μM): 0.2663
Living cell proportion (a value relative to CCK8) ([1]; crizotinib 9 μM): 0.2482
Living cell proportion (a value relative to CCK8) ([1]; crizotinib 12 μM): 0.2387
Living cell proportion (a value relative to CCK8) ([1]; crizotinib 15 μM): 0.2518
sensitivity of the glioblastoma PDC sample to the drug ([2]; PDC sample B (MET exon 10 deleted), in words): sensitive
Living cell proportion (a value relative to CCK8) ([2]; crizotinib 0.5 μM): 0.9128
Living cell proportion (a value relative to CCK8) ([2]; crizotinib 1 μM): 0.7978
Living cell proportion (a value relative to CCK8) ([2]; crizotinib 1.5 μM): 0.7125
Living cell proportion (a value relative to CCK8) ([2]; crizotinib 6 μM): 0.3689
Living cell proportion (a value relative to CCK8) ([2]; crizotinib 9 μM): 0.3059
Living cell proportion (a value relative to CCK8) ([2]; crizotinib 12 μM): 0.2806
Living cell proportion (a value relative to CCK8) ([2]; crizotinib 15 μM): 0.2769
Living cell proportion (a value relative to CCK8) ([3]; crizotinib 0.5 μM): 0.9496
Living cell proportion (a value relative to CCK8) ([3]; crizotinib 1 μM): 0.8619
Living cell proportion (a value relative to CCK8) ([3]; crizotinib 2 μM): 0.8082
Living cell proportion (a value relative to CCK8) ([3]; crizotinib 6 μM): 0.6643
Living cell proportion (a value relative to CCK8) ([3]; crizotinib 9 μM): 0.4383
Living cell proportion (a value relative to CCK8) ([3]; crizotinib 12 μM): 0.4003
Living cell proportion (a value relative to CCK8) ([3]; crizotinib 15 μM): 0.3824
sensitivity of the glioblastoma PDC sample to the drug ([3]; in words): sensitive
Living cell proportion (a value relative to CCK8) ([4]; crizotinib 0.5 μM): 0.9247
Living cell proportion (a value relative to CCK8) ([4]; crizotinib 1 μM): 0.8162
Living cell proportion (a value relative to CCK8) ([4]; crizotinib 1.5 μM): 0.7327
Living cell proportion (a value relative to CCK8) ([4]; crizotinib 2 μM): 0.6986
Living cell proportion (a value relative to CCK8) ([4]; crizotinib 3 μM): 0.7544
Living cell proportion (a value relative to CCK8) ([4]; crizotinib 6 μM): 0.5995
Living cell proportion (a value relative to CCK8) ([4]; crizotinib 9 μM): 0.4381
Living cell proportion (a value relative to CCK8) ([4]; crizotinib 12 μM): 0.3812
Living cell proportion (a value relative to CCK8) ([4]; crizotinib 15 μM): 0.4752
sensitivity of the glioblastoma PDC sample to the drug ([4]; in words): sensitive

Source: patent US20230160007A1, “KIT FOR EVALUATING SENSITIVITY OF PATIENT TO MET INHIBITOR” (Beijing Neurosurgical Institute, priority 2020, published 2023)
